Here are results for one compound from patent US12116344B2, “Crystalline forms of a pharmaceutical compound” (Azafaros B.V., priority 2020, dated 2024).

Data set [1] in a line: Stability of the crystalline form (transition of Form 2 into Form 3). It counts as physicochemical. As to conditions: Form 2 transitions into Form 3 above around 30° C. in about 1-5 min, or in solvent for more than 5 min at around 25° C.; listed as Form 3. The method, then:
Alternatively, Form 2 transitioned into Form 3 upon equilibration in solvent (e.g. acetone) for more than 5 min at around 25° C.

Data set [2] is described as follows: Stability of the test item in vehicle (acidified water). It counts as physicochemical. As to conditions: for Stability in the vehicle: 0.01 to 2 mg/mL.
Data set [3] has as its target T1, glucosylceramide synthase (GCS) (Homo sapiens, UniProt Q16739).
T1 sequence (Q16739 1-394): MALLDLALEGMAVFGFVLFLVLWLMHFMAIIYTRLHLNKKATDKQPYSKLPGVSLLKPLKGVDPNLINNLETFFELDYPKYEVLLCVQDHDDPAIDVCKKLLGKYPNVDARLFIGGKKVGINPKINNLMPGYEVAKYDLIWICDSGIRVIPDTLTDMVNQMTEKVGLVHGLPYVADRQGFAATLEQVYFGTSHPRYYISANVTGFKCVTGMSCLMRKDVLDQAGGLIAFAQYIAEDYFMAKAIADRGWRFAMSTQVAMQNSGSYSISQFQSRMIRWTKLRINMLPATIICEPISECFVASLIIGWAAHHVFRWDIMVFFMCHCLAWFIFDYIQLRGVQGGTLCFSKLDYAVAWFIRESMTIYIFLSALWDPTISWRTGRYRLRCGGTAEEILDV
Conditions: stated in words only, no test described; cited from earlier work.

Regarding `OC[C@H]1[C@@H](O)[C@H](O)[C@@H](O)CN1CCCCCOCc1ccc(-c2ccccc2)c(F)c1` [AZ-3102], in data set [1], the “Stability of the crystalline form” value is recorded as “better stability”. Moreover, the “Stability in the vehicle” value in data set [2] (freezer (≤−15° C.)) is given as “at least 3 weeks”; in data set [2] (refrigerated (2-8° C.)), “at least 8 days”; in data set [2] (room temperature protected from light) it was “at least 24 hours”. Further, the Stability in vehicle entry in data set [2] (under nitrogen at room temperature protected from light) is listed as “light for at least 24 h, stored under nitrogen”; in data set [2] (under nitrogen frozen in a freezer (≤−15° C.)) it was “for at least 21 days (3 weeks)”. The “Potency as inhibitor of GCS” value in data set [3] is given as “highly potent (nM)”.
